From US20260274833A1 (NiKang Therapeutics, Inc., priority 2022, published 2026)

The molecules below were run against T1, CDK2 (Homo sapiens, UniProt P24941) (assay: Phospho-RB measurement in OVCAR3 cells (HTRF phospho-RB cellular kit)). Settings: inhibition of RB phosphorylation at S807/811 (HTRF, TR-FRET ratio 665/620), 24 h compound treatment, 0.3 to 10,000 nM.
T1 construct: endogenous in cells; host or cells: OVCAR3 cells
Assay type: cell-based
Summary of the method: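 IC50 came from a four-parameter logistic fit of the DMSO-normalized TR-FRET ratio (665/620 nm). That ratio reflects RB phosphorylation at S807/811, read with an HTRF antibody pair 4 h after adding lysate at room temperature.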

SMILES	IC50 [µM]
CNCc1cccc2c1CCN2S(=O)(=O)Nc1cccc(-c2nc(C(C)(C)C)sc2-c2ccnc(NC3CCN(S(C)(=O)=O)CC3)n2)c1F [Example 134, N-(3-(2-(tert-butyl)-5-(2-((1-(methylsulfonyl)-piperidin-4-yl)amino)-pyriidin-4-yl)thiazol-4-yl)-2-fluoro-phenyl)-4-((methylamino)methyl)-indoline-1-sulfonamide]	0.589
CN(C)CCN(C)S(=O)(=O)N1CCC(Nc2nccc(-c3sc(C(C)(C)C)nc3-c3cccc(NS(=O)(=O)N(C)C)c3F)n2)CC1 [Example 135, 4-((4-(2-(tert-butyl)-4-(3-((N,N-dimethyl-sulfamoyl)amino)-2-fluoro-phenyl)thiazol-5-yl)pyrimidin-2-yl)amino)-N-(2-(dimethyl-amino)ethyl)-N-methylpiperidine-1-sulfonamide]	0.474
CC(C)(C)c1nc(-c2cccc(NS(=O)(=O)N3CCOc4ccccc43)c2F)c(-c2ccnc(NC3CCN(S(=O)(=O)N4CCNCC4)CC3)n2)s1 [Example 136, N-(3-(2-(tert-butyl)-5-(2-((1-(piperazin-1-ylsulfonyl)piperidin-4-yl)amino)-pyrimidin-4-yl)thiazol-4-yl)-2-fluorophenyl)-2,3-dihydro-4H-benzo[b][1,4] oxazine-4-sulfonamide]	1.49
CN1CCN(S(=O)(=O)Nc2cccc(-c3nc(C(C)(C)C)sc3-c3ccnc(NC4CCN(S(C)(=O)=O)CC4)n3)c2F)Cc2ccccc21 [Example 137, N-(3-(2-(tert-butyl)-5-(2-((1-(methylsulfonyl)-piperidin-4-yl)amino)-pyrimidin-4-yl)thiazol-4-yl)-2-fluoro-phenyl)-1-methyl-1,2,3,5-tetrahydro-4H-benzo[e][1,4] diazepine-4-sulfonamide]	0.286
CN1CCN(S(=O)(=O)N2CCC(Nc3nccc(-c4sc(C(C)(C)C)nc4-c4cccc(NS(=O)(=O)N5CCNc6ccccc6C5)c4F)n3)CC2)CC1 [Example 138, N-(3-(2-(tert-butyl)-5-(2-((1-((4-methylpiperazin-1-yl)sulfonyl)piperidin-4-yl)amino)pyrimidin-4-yl)thiazol-4-yl)-2~fluorophenyl)-1,2,3,5-tetrahydro-4H-benzo[e][1,4] diazepine-4-sulfonamide]	0.396
CN(C)CCN(C)S(=O)(=O)N1CCC(Nc2nccc(-c3sc(C(C)(C)C)nc3-c3cccc(NS(=O)(=O)N4CCNc5ccccc5C4)c3F)n2)CC1 [Example 139, N-(3-(2-(tert-butyl)-5-(2-((1-(N-(2-(dimethyl-amino)ethyl)-N-methyl-sulfamoyl)piperidin-4-yl)amino)-pyrimidin-4-yl)thiazol-4-yl)-2-fluoro-phenyl)-1,2,3,5-tetrahydro-4H-benzo[e][1,4] diazepine-4-sulfonamide]	0.291
C[C@@H]1Cc2ccccc2N1S(=O)(=O)Nc1cccc(-c2nc(C(C)(C)C)sc2-c2ccnc(NC3CCN(S(=O)(=O)N4CCNCC4)CC3)n2)c1F [Example 140, (R)-N-(3-(2-(tert-butyl)-5-(2-((1-(piperazin-1-ylsulfonyl)piperidin-4-yl)amino)pyrimidin-4-yl)thiazol-4-yl)-2-fluorophenyl)-2-methyl-indoline-1-sulfonamide]	0.622
CC(C)(C)c1nc(-c2cccc(NS(=O)(=O)N3CCc4ncccc43)c2F)c(-c2ccnc(NC3CCN(S(C)(=O)=O)CC3)n2)s1 [Example 141, N-(3-(2-(tert-butyl)-5-(2-((1-(methylsulfonyl)-piperidin-4-yl)amino)-pyrimidin-4-yl)thiazol-4-yl)-2-fluoro-phenyl)-2,3-dihydro-1H-pyrrolo [3,2-b]-pyridine-1-sulfonamide]	0.291
CN(C)Cc1ccc2c(c1)N(S(=O)(=O)Nc1cccc(-c3nc(C(C)(C)C)sc3-c3ccnc(NC4CCN(S(C)(=O)=O)CC4)n3)c1F)CC2 [Example 142, N-(3-(2-(tert-butyl)-5-(2-((1-(methylsulfonyl)-piperidin-4-yl)amino)-pyrimidin-4-yl)thiazol-4-yl)-2-fluoro-phenyl)-6-((dimethylamino)-methyl)-indoline-1-sulfonamide]	0.341
COc1cccc2c1CN(S(=O)(=O)Nc1cccc(-c3nc(C(C)(C)C)sc3-c3ccnc(NC4CCN(S(=O)(=O)N5CCNCC5)CC4)n3)c1F)C2 [Example 143, N-(3-(2-(tert-butyl)-S-(2-((1-(piperazin-1-ylsulfonyl)piperidin-4-yl)amino)-pyrimidin-4-yl)thiazol-4-yl)-2-fluoro-phenyl)-4-methoxy-isoindoline-2-sulfonamide]	0.136
CC(C)(C)c1nc(-c2cccc(NS(=O)(=O)N3Cc4ccc(F)cc4C3)c2F)c(-c2ccnc(NC3CCN(S(=O)(=O)N4CCNCC4)CC3)n2)s1 [Example 144, N-(3-(2-(tert-butyl)-5-(2-((1-(piperazin-1-ylsulfonyl)piperidin-4-yl)amino)-pyrimidin-4-yl)thiazol-4-yl)-2-fluoro-phenyl)-5-fluoro-isoindoline-2-sulfonamide]	0.227
CNC(=O)c1cccc2c1CN(S(=O)(=O)Nc1cccc(-c3nc(C(C)(C)C)sc3-c3ccnc(NC4CCN(S(C)(=O)=O)CC4)n3)c1F)C2 [Example 145, 2-(N-(3-(2-(tert-butyl)-5-(2-((1-(methyl-sulfonyl)piperidin-4-yl)amino)pyrimidin-4-yl)thiazol-4-yl)-2-fluorophenyl)-sulfamoyl)-N-methyliso-indoline-4-carboxamide]	0.389
CNS(=O)(=O)Nc1cccc(-c2nc(C(C)(C)C)sc2-c2ccnc(NC3CCN(S(=O)(=O)N4CCNCC4)CC3)n2)c1F [Example 146, N-(3-(2-(tert-butyl)-5-(2-((1-(piperazin-1-ylsulfonyl)piperidin-4-yl)amino)-pyrimidin-4-yl)thiazol-4-yl)-2-fluoro-phenyl)-methylamine-sulfonamide]	3.01
C[C@H]1Cc2ccccc2N1S(=O)(=O)Nc1cccc(-c2nc(C(C)(C)C)sc2-c2ccnc(NC3CCN(S(=O)(=O)N4CCNCC4)CC3)n2)c1F [Example 147, (S)-N-(3-(2-(tert-butyl)-5-(2-((1-(piperazin-1-ylsulfonyl)piperidin-4-yl)amino)pyrimidin-4-yl)thiazol-4-yl)-2-fluorophenyl)-2-methylindoline-1-sulfonamide]	0.458
CC1c2ccccc2CN1S(=O)(=O)Nc1cccc(-c2nc(C(C)(C)C)sc2-c2ccnc(NC3CCN(S(=O)(=O)N4CCNCC4)CC3)n2)c1F (stereo not shown) [Example 148, N-(3-(2-(tert-butyl)-5-(2-((1-(piperazin-1-ylsulfonyl)piperidin-4-yl)amino)-pyrimidin-4-yl)thiazol-4-yl)-2-fluoro-phenyl)-1-methylisoindoline-2-sulfonamide]	0.21
CC(C)(C)c1nc(-c2cccc(NS(=O)(=O)N3Cc4ccc(C#N)cc4C3)c2F)c(-c2ccnc(NC3CCN(S(=O)(=O)N4CCNCC4)CC3)n2)s1 [Example 149, N-(3-(2-(tert-butyl)-5-(2-((1-(piperazin-1-ylsulfonyl)piperidin-4-yl)amino)-pyrimidin-4-yl)thiazol-4-yl)-2-fluoro-phenyl)-5-cyanoisoindoline-2-sulfonamide]	0.488
CN(C)CCOc1cccc2c1CN(S(=O)(=O)Nc1cccc(-c3nc(C(C)(C)C)sc3-c3ccnc(NC4CCN(S(C)(=O)=O)CC4)n3)c1F)C2 [Example 150, N-(3-(2-(tert-butyl)-5-(2-((1-(methylsulfonyl)piperidin-4-yl)amino)-pyrimidin-4-yl)thiazol-4-yl)-2-fluoro-phenyl)-4-(2-(dimethylamino)-ethoxy)-isoindoline-2-sulfonamide]	1.84
CNC(=O)c1ccc2c(c1)N(S(=O)(=O)Nc1cccc(-c3nc(C(C)(C)C)sc3-c3ccnc(NC4CCN(S(C)(=O)=O)CC4)n3)c1F)CC2 [Example 151, 1-(N-(3-(2-(tert-butyl)-5-(2-((1-(methyl-sulfonyl)piperidin-4-yl)amino)pyrimidin-4-yl)thiazol-4-yl)-2-fluorophenyl)-sulfamoyl)-N-methylindoline-6-carboxamide]	0.355
CN(C)C(=O)c1ccc2c(c1)N(S(=O)(=O)Nc1cccc(-c3nc(C(C)(C)C)sc3-c3ccnc(NC4CCN(S(C)(=O)=O)CC4)n3)c1F)CC2 [Example 152, 1-(N-(3-(2-(tert-butyl)-5-(2-((1-(methyl-sulfonyl)piperidin-4-yl)amino)pyrimidin-4-yl)thiazol-4-yl)-2-fluorophenyl)-sulfamoyl)-N,N-dimethylindoline-6-carboxamide]	0.397
CC(C)(C)c1nc(-c2cccc(NS(=O)(=O)N3CCc4ccncc43)c2F)c(-c2ccnc(NC3CCN(S(C)(=O)=O)CC3)n2)s1 [Example 154, N-(3-(2-(tert-butyl)-5-(2-((1-(methylsulfonyl)-piperidin-4-yl)amino)-pyrimidin-4-yl)thiazol-4-yl)-2-fluoro-phenyl)-2,3-dihydro-1H-pyrrolo[2,3-c]-pyridine-1-sulfonamide]	0.685
CC(C)(C)c1nc(-c2cccc(NS(=O)(=O)N3CC4CC4C3)c2F)c(-c2ccnc(NC3CCN(S(=O)(=O)N4CCNCC4)CC3)n2)s1 (stereo not shown) [Example 155, N-(3-(2-(tert-butyl)-5-(2-((1-(piperazin-1-ylsulfonyl)piperidin-4-yl)amino)-pyrimidin-4-yl)thiazol-4-yl)-2-fluorophenyl)-3-azabicyclo[3.1.0]-hexane-3-sulfonamide]	1.06
CN(C)CCN(C)S(=O)(=O)N1CCC(Nc2nccc(-c3sc(C(C)(C)C)nc3-c3cccc(NS(=O)(=O)N4Cc5ccccc5C4)c3F)n2)CC1 [Example 156, N-(3-(2-(tert-butyl)-5-(2-((1-(N-(2-(dimethylamino)ethyl)-N-methyl-sulfamoyl)piperidin-4-yl)amino)-pyrimidin-4-yl)thiazol-4-yl)-2-fluoro-phenyl)isoindoline-2-sulfonamide]	0.0903
